{"source": "PubChem BioAssay (NCI)", "test_in_all_cases": "NCI-60 cell line screen, 48 h", "key": {"TK-10 renal": {"tested_on": "TK-10 renal"}, "KM12 colon": {"tested_on": "KM12 colon"}, "ACHN renal": {"tested_on": "ACHN renal"}, "EKVX NSCLC": {"tested_on": "EKVX NSCLC"}, "SF-268 CNS": {"tested_on": "SF-268 CNS"}, "M14 melanoma": {"tested_on": "M14 melanoma"}, "KM20L2 colon": {"tested_on": "KM20L2 colon"}, "HT29 colon": {"tested_on": "HT29 colon"}, "SNB-78 CNS": {"tested_on": "SNB-78 CNS"}, "UACC-257 melanoma": {"tested_on": "UACC-257 melanoma"}, "IGROV1 ovarian": {"tested_on": "IGROV1 ovarian"}, "HCT-15 colon": {"tested_on": "HCT-15 colon"}, "XF 498 CNS": {"tested_on": "XF 498 CNS"}, "A549 NSCLC": {"tested_on": "A549 NSCLC"}, "HOP-62 NSCLC": {"tested_on": "HOP-62 NSCLC"}, "SR leukemia": {"tested_on": "SR leukemia"}, "DLD-1 colon": {"tested_on": "DLD-1 colon"}, "RXF 393 renal": {"tested_on": "RXF 393 renal"}, "HL-60(TB) leukemia": {"tested_on": "HL-60(TB) leukemia"}, "NCI-H226 lung": {"tested_on": "NCI-H226 lung"}, "LOX IMVI melanoma": {"tested_on": "LOX IMVI melanoma"}, "SW-620 colon": {"tested_on": "SW-620 colon"}, "SF-539 CNS": {"tested_on": "SF-539 CNS"}, "U251 CNS": {"tested_on": "U251 CNS"}, "SK-MEL-2 melanoma": {"tested_on": "SK-MEL-2 melanoma"}, "COLO 205 colon": {"tested_on": "COLO 205 colon"}, "NCI-H460 lung": {"tested_on": "NCI-H460 lung"}, "SN12C renal": {"tested_on": "SN12C renal"}, "CAKI-1 renal": {"tested_on": "CAKI-1 renal"}, "OVCAR-3 ovarian": {"tested_on": "OVCAR-3 ovarian"}, "OVCAR-4 ovarian": {"tested_on": "OVCAR-4 ovarian"}, "UACC-62 melanoma": {"tested_on": "UACC-62 melanoma"}, "DMS 273 small cell lung": {"tested_on": "DMS 273 small cell lung"}, "DMS 114 small cell lung": {"tested_on": "DMS 114 small cell lung"}, "HOP-18 NSCLC": {"tested_on": "HOP-18 NSCLC"}, "HCT-116 colon": {"tested_on": "HCT-116 colon"}, "786-0 renal": {"tested_on": "786-0 renal"}, "CCRF-CEM leukemia": {"tested_on": "CCRF-CEM leukemia"}, "K-562 leukemia": {"tested_on": "K-562 leukemia"}, "SNB-75 CNS": {"tested_on": "SNB-75 CNS"}, "HCC-2998 colon": {"tested_on": "HCC-2998 colon"}, "NCI-H522 lung": {"tested_on": "NCI-H522 lung"}, "NCI-H23 lung": {"tested_on": "NCI-H23 lung"}, "RXF-631 renal": {"tested_on": "RXF-631 renal"}, "M19-MEL melanoma": {"tested_on": "M19-MEL melanoma"}, "MALME-3M melanoma": {"tested_on": "MALME-3M melanoma"}, "UO-31 renal": {"tested_on": "UO-31 renal"}, "LXFL 529 NSCLC": {"tested_on": "LXFL 529 NSCLC"}, "SF-295 CNS": {"tested_on": "SF-295 CNS"}, "MOLT-4 leukemia": {"tested_on": "MOLT-4 leukemia"}, "SK-MEL-28 melanoma": {"tested_on": "SK-MEL-28 melanoma"}, "OVCAR-8 ovarian": {"tested_on": "OVCAR-8 ovarian"}, "SNB-19 CNS": {"tested_on": "SNB-19 CNS"}, "OVCAR-5 ovarian": {"tested_on": "OVCAR-5 ovarian"}, "SK-OV-3 ovarian": {"tested_on": "SK-OV-3 ovarian"}}, "note": "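The compound was tested at five concentrations on cells cultured in 96-well plates, with a 48-hour exposure period. TGI denotes the concentration required for complete inhibition of growth.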"}
{"compound": "Cc1ccc(Nc2nc(C)c(C(/C=C/c3ccc4c(c3)OCO4)=N/Nc3ccc([N+](=O)[O-])cc3[N+](=O)[O-])s2)c([N+](=O)[O-])c1", "values": [{"measurement": "TGI", "setting": "TK-10 renal", "result": "> 100", "unit": "µM"}, {"measurement": "TGI", "setting": "KM12 colon", "result": "> 100", "unit": "µM"}, {"measurement": "TGI", "setting": "ACHN renal", "result": "> 100", "unit": "µM"}, {"measurement": "TGI", "setting": "EKVX NSCLC", "result": "> 100", "unit": "µM"}, {"measurement": "TGI", "setting": "SF-268 CNS", "result": "> 100", "unit": "µM"}, {"measurement": "TGI", "setting": "M14 melanoma", "result": "> 100", "unit": "µM"}, {"measurement": "TGI", "setting": "KM20L2 colon", "result": "> 100", "unit": "µM"}, {"measurement": "TGI", "setting": "HT29 colon", "result": "> 100", "unit": "µM"}, {"measurement": "TGI", "setting": "SNB-78 CNS", "result": "> 100", "unit": "µM"}, {"measurement": "TGI", "setting": "UACC-257 melanoma", "result": "> 100", "unit": "µM"}, {"measurement": "TGI", "setting": "IGROV1 ovarian", "result": "> 100", "unit": "µM"}, {"measurement": "TGI", "setting": "HCT-15 colon", "result": "> 100", "unit": "µM"}, {"measurement": "TGI", "setting": "XF 498 CNS", "result": 56.2, "unit": "µM"}, {"measurement": "TGI", "setting": "A549 NSCLC", "result": "> 100", "unit": "µM"}, {"measurement": "TGI", "setting": "HOP-62 NSCLC", "result": "> 100", "unit": "µM"}, {"measurement": "TGI", "setting": "SR leukemia", "result": "> 100", "unit": "µM"}, {"measurement": "TGI", "setting": "DLD-1 colon", "result": "> 100", "unit": "µM"}, {"measurement": "TGI", "setting": "RXF 393 renal", "result": "> 100", "unit": "µM"}, {"measurement": "TGI", "setting": "HL-60(TB) leukemia", "result": 95, "unit": "µM"}, {"measurement": "TGI", "setting": "NCI-H226 lung", "result": 90.1, "unit": "µM"}, {"measurement": "TGI", "setting": "LOX IMVI melanoma", "result": "> 100", "unit": "µM"}, {"measurement": "TGI", "setting": "SW-620 colon", "result": "> 100", "unit": "µM"}, {"measurement": "TGI", "setting": "SF-539 CNS", "result": "> 100", "unit": "µM"}, {"measurement": "TGI", "setting": "U251 CNS", "result": "> 100", "unit": "µM"}, {"measurement": "TGI", "setting": "SK-MEL-2 melanoma", "result": "> 100", "unit": "µM"}, {"measurement": "TGI", "setting": "COLO 205 colon", "result": "> 100", "unit": "µM"}, {"measurement": "TGI", "setting": "NCI-H460 lung", "result": "> 100", "unit": "µM"}, {"measurement": "TGI", "setting": "SN12C renal", "result": "> 100", "unit": "µM"}, {"measurement": "TGI", "setting": "CAKI-1 renal", "result": "> 100", "unit": "µM"}, {"measurement": "TGI", "setting": "OVCAR-3 ovarian", "result": "> 100", "unit": "µM"}, {"measurement": "TGI", "setting": "OVCAR-4 ovarian", "result": "> 100", "unit": "µM"}, {"measurement": "TGI", "setting": "UACC-62 melanoma", "result": 17.8, "unit": "µM"}, {"measurement": "TGI", "setting": "DMS 273 small cell lung", "result": "> 100", "unit": "µM"}, {"measurement": "TGI", "setting": "DMS 114 small cell lung", "result": "> 100", "unit": "µM"}, {"measurement": "TGI", "setting": "HOP-18 NSCLC", "result": 63.7, "unit": "µM"}, {"measurement": "TGI", "setting": "HCT-116 colon", "result": "> 100", "unit": "µM"}, {"measurement": "TGI", "setting": "786-0 renal", "result": "> 100", "unit": "µM"}, {"measurement": "TGI", "setting": "CCRF-CEM leukemia", "result": "> 100", "unit": "µM"}, {"measurement": "TGI", "setting": "K-562 leukemia", "result": "> 100", "unit": "µM"}, {"measurement": "TGI", "setting": "SNB-75 CNS", "result": "> 100", "unit": "µM"}, {"measurement": "TGI", "setting": "HCC-2998 colon", "result": "> 100", "unit": "µM"}, {"measurement": "TGI", "setting": "NCI-H522 lung", "result": 37.4, "unit": "µM"}, {"measurement": "TGI", "setting": "NCI-H23 lung", "result": "> 100", "unit": "µM"}, {"measurement": "TGI", "setting": "RXF-631 renal", "result": "> 100", "unit": "µM"}, {"measurement": "TGI", "setting": "M19-MEL melanoma", "result": "> 100", "unit": "µM"}, {"measurement": "TGI", "setting": "MALME-3M melanoma", "result": "> 100", "unit": "µM"}, {"measurement": "TGI", "setting": "UO-31 renal", "result": "> 100", "unit": "µM"}, {"measurement": "TGI", "setting": "LXFL 529 NSCLC", "result": "> 100", "unit": "µM"}, {"measurement": "TGI", "setting": "SF-295 CNS", "result": "> 100", "unit": "µM"}, {"measurement": "TGI", "setting": "MOLT-4 leukemia", "result": "> 100", "unit": "µM"}, {"measurement": "TGI", "setting": "SK-MEL-28 melanoma", "result": "> 100", "unit": "µM"}, {"measurement": "TGI", "setting": "OVCAR-8 ovarian", "result": "> 100", "unit": "µM"}, {"measurement": "TGI", "setting": "SNB-19 CNS", "result": "> 100", "unit": "µM"}, {"measurement": "TGI", "setting": "OVCAR-5 ovarian", "result": "> 100", "unit": "µM"}, {"measurement": "TGI", "setting": "SK-OV-3 ovarian", "result": "> 100", "unit": "µM"}]}
